Data on one molecule can be found in patent publication US20120029015A1, “Novel medical use of kynurenic acid, its precursors and derivatives” (priority 2009, published 2012).

Assay type in all cases: in vivo, Wistar rats
Test [1] relates to caerulein-induced destruction of pancreatic tissue (DPT). Description: Histological changes in pancreatic tissue in caerulein-induced DPT. The following applies: KYNA 100 mg/kg/hr + caerulein; mean ± SD; scale 0-3. Here is the method:
(§1) The experiments were performed using adult male Wistar rats. All experimental procedures were in compliance with currently accepted guidelines for care and use of animals. The study protocol was approved by the Bioethics Committee. Before the experiment, rats were given no food for 24 hours, water was available in unrestricted quantities. Destruction of pancreatic tissue (DPT) was induced by injections of caerulein (dose of 15 μg/kg/hr). Animals were randomly assigned to the following groups. […] After 6 hours from inducing DPT antioxidative effects were determined by means of measuring the ferric reducing ability of plasma (FRAP) and levels of the markers of oxidative stress: malonyldialdehyde and 4-hydroxynonenals (MDA+4-HNE). The measurement of pancreatic edema, the serum α-amylase activity and histopathological analysis of pancreas were carried out to assess the progress of the disease. Histopathological presentation of pancreas injury consists of edema, vacuolization or necrosis (Table 2). Since in the situation of application of a pancreas damaging agent caerulein kynurenic acid in the dose of 100 mg/kg/hr prevents or diminishes edema, vacuolization, and number of necrotic foci, kynurenic acid, its salts and derivatives may be of use in prevention and therapy of conditions leading to destruction of pancreatic tissue and are characterized by such histological picture.

Test [2] has the same test system. Description: Water content of pancreatic tissue (pancreatic edema) in caerulein-induced destruction of pancreatic tissue. The following applies: for Water content of pancreas: 6 hours after inducing DPT, % of wet weight, mean. Here is the method:
as §1, with “[…] Kynurenic” for “Histopathological presentation of pancreas injury consists of edema, vacuolization or necrosis (Table 2). Since in the situation of application of a pancreas damaging agent caerulein kynurenic”, “50 mg/kg/hrs was also effective (Table 1). Since kynurenic acid” for “100 mg/kg/hr”, “edema induced by the pancreas damaging factor caerulein,” for “or diminishes edema, vacuolization, and number of necrotic foci,”, “used” for “of use”, “injury” for “destruction”, “tissue.” for “tissue and are characterized by such histological picture.”

Test [3] has the same test system. Description: Plasma levels of lipid peroxidation products (MDA + 4-HNE) in caerulein-induced DPT. To be noted: KYNA 100 mg/kg/hr + caerulein, mean. Here is the method: (§2) The experiments were performed using adult male Wistar rats. All experimental procedures were in compliance with currently accepted guidelines for care and use of animals. The study protocol was approved by the Bioethics Committee. Before the experiment, rats were given no food for 24 hours, water was available in unrestricted quantities. Destruction of pancreatic tissue (DPT) was induced by injections of caerulein (dose of 15 μg/kg/hr). Animals were randomly assigned to the following groups. […] After 6 hours from inducing DPT antioxidative effects were determined by means of measuring the ferric reducing ability of plasma (FRAP) and levels of the markers of oxidative stress: malonyldialdehyde and 4-hydroxynonenals (MDA+4-HNE). The measurement of pancreatic edema, the serum α-amylase activity and histopathological analysis of pancreas were carried out to assess the progress of the disease. In the group of animals with caerulein-induced destruction of pancreatic tissue significant increase of concentration of malonyldialdehyde (MDA) and 4-hydroxynonenals (4-HNE), two markers of oxidative stress, occurred.

For test [4] the test system is unchanged. Description: Antioxidant capacity of plasma (FRAP) in caerulein-induced DPT. The following applies: KYNA 100 mg/kg/hr + caerulein, mean. The method, then:
as §2, with “disease.” for “disease. In the group of animals with caerulein-induced destruction of pancreatic tissue significant increase of concentration of malonyldialdehyde (MDA) and 4-hydroxynonenals (4-HNE), two markers of oxidative stress, occurred.”

The test system is the same in test [5]. Description: Serum α-amylase activity in caerulein-induced DPT. To be noted: mean. Here is the method: The experiments were performed using adult male Wistar rats. All experimental procedures were in compliance with currently accepted guidelines for care and use of animals. The study protocol was approved by the Bioethics Committee. Before the experiment, rats were given no food for 24 hours, water was available in unrestricted quantities. Destruction of pancreatic tissue (DPT) was induced by injections of caerulein (dose of 15 μg/kg/hr). Animals were randomly assigned to the following groups. […] After 6 hours from inducing DPT antioxidative effects were determined by means of measuring the ferric reducing ability of plasma (FRAP) and levels of the markers of oxidative stress: malonyldialdehyde and 4-hydroxynonenals (MDA+4-HNE). The measurement of pancreatic edema, the serum α-amylase activity and histopathological analysis of pancreas were carried out to assess the progress of the disease. The extent of the serum α-amylase elevation is roughly proportional to the degree of destruction of pancreatic tissue. In Table 3 it is shown that kynurenic acid in the dose of 100 mg/kg/hr prevents elevation of α-amylase in the serum of caerulein-treated rats. Kynurenic acid in the dose of 50 mg/kg/hrs was also effective. […]

Marks after values point to notes of the source that are not given here.

Consider `O=C(O)c1cc(O)c2ccccc2n1` [KYNA, kynurenic acid], for which, in test [1], the “Edema (0-3), histological score” value is recorded as 1.6 ± 0.45; the “Necrosis (0-3), histological score” value was 0.0 ± 0.0; the “Vacuolisation (0-3), histological score” value came out at 0.8 ± 0.44. Moreover, the “Water content of pancreas” value in test [2] (KYNA 50 mg/kg/hr infusion + caerulein) is 73.03* %. Further, in test [2] (KYNA 100 mg/kg/hr infusion + caerulein), the “Water content of pancreas” value is on record as 68.22* %. For the same molecule, the “Macroscopic edema of pancreas” value in test [2] (KYNA 100 mg/kg/hr infusion + caerulein, macroscopic presentation) is given as “no edema was noted”. The “MDA + 4-HNE plasma level” value in test [3] is 3.11* nmol/ml. For the same molecule, the “FRAP (Ferric Reducing Ability of Plasma)” value in test [4] was 602.4* μM. The “Serum α-amylase activity” value in test [5] (KYNA 50 mg/kg/hr + caerulein) is recorded as 5262.26^#* U/l. The “Serum α-amylase activity” value in test [5] (KYNA 100 mg/kg/hr + caerulein) is reported as 3495.20* U/l.
